According to patent US10351525B2, “Beta lactamase inhibitors” (Oxford University Innovation Limited, priority 2014, dated 2019):

Legend:
NDM-1 = biological target: T1, NDM-1 (Klebsiella pneumoniae, UniProt C7C422); test: biochemical
T1 construct: made in house; host or cells: Escherichia coli
Protocol: (§1) Recombinant forms of NDM-1, NDM-1 M67C, VIM-1, VIM-2, SPM-1, IMP-1 and BcII MBLs were produced in Escherichia coli as described in J. Med. Chem. 56, 6945-6953 (2013) and Makena et al Chem MechCHem 8, 1923-9 (2013). Purified VIM-2 protein was dialysed into fresh crystallization buffer (50 mM HEPES pH 7.5, 150 mM NaCl and […], concentrated to 7.5 mg/mL and used for crystallographic analyses.
(§2) Kinetic and inhibition analyses and UV-VIS studies^16 against bacterial MBLs were performed as described by Van Berkel et al in J. Med. Chem. 56, 6945-6953 (2013) and Makena et al Chem MechCHem 8, 1923-9 (2013).
(§3) The experiments were performed by using a NovaStar microplate reader (using path length correction) and were performed at r.t. (24-25° C.). All enzymes and substrates were dissolved in the assay buffer: 50 mM HEPES-NaOH buffer (pH 7.2) supplemented with 1 μg/mL BSA (to minimize the denaturation of the enzyme), 1 μM ZnSO4 and 0.01% Triton 100. Screening was carried out against a panel of MBLs including NDM-1, VIM-1, VIM-2, SPM-1 (Sao Paulo MBL-1) and IMP-1 and the non-clinically relevant model MBL Bacillus cereus (BcII).
(§4) The kinetic values determined were the means from at least three independent measurements. […] The IC50 values were determined from the plot of activity (steady state rate) versus inhibitor concentration using the same software. […]

VIM-2 = biological target: T2, VIM-2 (Escherichia coli, UniProt Q5U7L7); test: MBL screening assay (IC50), VIM-2; type: biochemical
T2 construct: made in house; host or cells: Escherichia coli
Protocol: as §1, §2, §3
The kinetic values determined were the means from at least three independent measurements. At least six different concentrations of the substrate or inhibitor were used to determinate the kinetic parameters (KM, kcat and IC50). Determination of the steady state kinetic parameters for the hydrolysis of different substrates (KM and kcat) was performed by fitting the initial velocity data to the Michaelis-Menten equation using the software package Graph Prism 5.01. The IC50 values were determined from the plot of activity (steady state rate) versus inhibitor concentration using the same software.
IC50 values (concentration required to affect 50% inhibition of enzyme activity) were determined by preincubation of the appropriate amount of enzyme with the desired compound in the assay buffer for 10 min at r.t. prior to the initiation of the assay by the addition of the substrate. The compounds for inhibition study were prepared in 1 to 100 mM DMSO stock solutions.

SPM-1 = SPM-1 (Pseudomonas aeruginosa, UniProt Q8G9Q0); test: MBL screening assay (IC50), SPM-1; type: biochemical
Protocol: as §1, §2, §3, §4

BcII = biological target: T3, BcII (Bacillus cereus, UniProt P04190); test: MBL screening assay (IC50), BcII; type: biochemical
T3 construct: made in house; host or cells: Escherichia coli
Protocol: as §1, §2, §3, §4

PBP6 (dacC) from E. coli = PBP6 (dacC) from E. coli (Escherichia coli, UniProt P08506); test: Inhibition studies for penicillin binding proteins, PBP6; type: biochemical; conditions: for Inhibition verdict: 100 μM; for remaining activity at 100 µM: read-out: RA (residual activity); as to Inhibition verdict: key: N.I.—not inhibited
Protocol: (§5) To investigate the selectivity of ML302/ML302F for bacterial MBLs, activity was tested against TEM-1 (a Class A SBL), PBP-5 (penicillin-binding protein 5 or dacA) and PBP-6 (penicillin-binding protein 6, or dacC) from E. coli, hHAT (human histone acetyltransferase) and hHDAC (human histone deacetylase). TEM-1, PBP-5 and -6 and hHAT are known to be inhibited by rhodanines. Selectively against hACE-2 (Angiotensin converting enzyme 2) and hHAGH (Hydroxyacylglutathione hydrolase, human Glyoxylase II) was also tested.
The inhibition analyses were performed using the method previously described for PBP-3 (van Berkel, S. S. et al. Binding of (5 S)-penicilloic acid to penicillin binding protein 3.ACS Chem. Biol. 8, 2112-2116 (2013)). In brief: ML302 and ML302F were initially screened at a single concentration (100 μM) in duplicate. Inhibition of the PBP acylation rate by the chromogenic β-lactam Nitrocefin was determined by pre-incubation of the appropriate amount of enzyme (dacA 2 μM and dacC 6.8 μM, respectively) and inhibitor in the assay buffer (50 mM HEPES-NaOH buffer (pH 7.2) supplemented with 200 mM NaCl and 0.01% Triton 100) for 10 min. at r.t. prior to the initiation of the assay by the addition of nitrocefin (100 μM final concentration). The hydrolysis of Nitrocefin was monitored by following the variation in absorbance at 492 nm using 96 well flat bottom plates (UV-STAR Microplate (655801) or Greiner Bio-One). The experiments were performed using a PHERAstar FS—BMG Labtech microplate reader (using path length correction) at r.t. (24-25° C.). All enzymes and inhibitors were prepared in the assay buffer.

hACE-2 = biological target: T4, hACE-2 (Homo sapiens, UniProt Q9BYF1); test: hACE 2 assay; type: biochemical; conditions: for remaining activity at 100 µM: read-out: RA (residual activity); as to Inhibition verdict: key: N.I.—not inhibited
T4 construct: purchased R&D Systems 933-ZN
Protocol: as §5
The inhibition analyses for human histone acetyltransferases (HAT), HDAC hHDAC (human histone deacetylase), hACE-2 (Angiotensin converting enzyme 2) and hHAGH (Hydroxyacylglutathione hydrolase, human Glyoxylase II) were performed using the commercially available HAT Assay Kit (Active Motif, catalogue No. 56100 (2009)), hHDAC (Active Motif, catalogue No. 56200 (2013)), hACE-2 (ACE-2 (R&D Systems) and hHAGH ((R&D Systems).
hACE 2 Assay (R&D systems):
• Assay Buffer: 75 mM Tris, 1 M NaCl, pH 7.5 • Recombinant Human ACE-2 (rhACE-2) (Catalog #933-ZN) • Substrate: MCA-Tyr-Val-Ala-Asp-Ala-Pro-Lys(DNP)-OH (Catalog # ES007), 10 mM stock in DMSO • F16 Black Maxisorp Plate (Nunc, Catalog #475515) • Fluorescent Plate Reader (Model: SpectraMax Gemini EM by Molecular Devices) or equivalent Assay: 1. Dilute rhACE-2 to 0.2 ng/μL in Assay Buffer. 2. Dilute Substrate to 40 μM in Assay Buffer. 3. Load in a black well plate 50 μL of […], and start the reaction by adding 50 μL of 40 μM Substrate. As a control load […] Substrate with 50 μL of Assay Buffer. 4. Read at excitation and emission wavelengths of 320 nm and 405 nm (top read), respectively in kinetic mode for 5 minutes. 5.

| Compound | IC50 (NDM-1) [nM] | IC50 (VIM-2; IC50, VIM-2) [nM] | IC50 (VIM-2; IC50 value against VIM-2 obtained using this assay, VIM-2) [nM] | IC50 (SPM-1) [nM] | IC50 (BcII) [nM] | Inhibition verdict (PBP6 (dacC) from E. coli) | remaining activity at 100 µM (PBP6 (dacC) from E. coli) [%] | RA (residual activity) (hACE-2; 100 μM) | remaining activity at 100 µM (hACE-2; 100 μM) [%] | Inhibition verdict (hACE-2) |
| --- | --- | --- | --- | --- | --- | --- | --- | --- | --- | --- |
| CN1CCN(NC(=O)CN2C(=O)C(=Cc3c(Cl)ccc(Cl)c3Cl)SC2=S)CC1 (mixture of isomers) [ML302, N-(4-Methylpiperazin-1-yl)-2-(4-oxo-2-thioxo-5-(2,3,6-trichlorobenzylidene)thiazolidin-3-yl)acetamide] | 9440 ± 1440 | 490 ± 180 | 498 ± 18 | 1320 ± 620 | 500 ± 150 | N.I. | 97.7 ± 3.8 | 73 ± 9 ^ % | ~75 |  |
| O=C(O)C(S)=Cc1c(Cl)ccc(Cl)c1Cl (racemic) [ML302F, 2-Mercapto-3-(2,3,6-trichlorophenyl)acrylic acid] | 1050 ± 300 | 300 ± 90 |  | 1760 ± 510 | 20 | N.I. | 114 |  | 99 ± 4 | N.I. |
